{"source": "patent US9840500B2", "about": "“Compounds as dual inhibitors of histone methyltransferases and DNA methyltransferases” (FUNDACIÓN PARA LA INVESTIGACIÓN MÉDICA APLICADA, priority 2014, dated 2017)", "key": {"SU-DHL-7": {"test_system": "SU-DHL-7", "assay": "Cell proliferation assay, SU-DHL-7 (GC-DLBCL)", "format": "cell-based", "settings": "48 hours", "description": "(§1) Cell proliferation was analyzed after 48 hours of in vitro treatment using the CellTiter 96 Aqueous One Solution Cell Proliferation Assay (Promega, Madison, Wis.). This is a colorimetric method for determining the number of viable cells in proliferation.\n(§2) For the assay, suspension cells were cultured by triplicate at a density of 1×10^6 cells/ml in 96-well plates (100.000 cells/well, 100 μl/well), except for OCILY-3 and OCILY-10 cell lines which were cultured at a density of 0.5×10^6 cells/ml (50.000 cells/well, 100 μl/well) and for HepG2, Hep3B and PLC/PRF/5 cell ines which were cultured at a density of 3000 cells/well, 100 μl/well). Adherent cells were obtained from 80-90% confluent flasks and 100 μl of cells were seeded at a density of 5000 cells/well in 96-well plates by triplicate. Before addition of the compounds, adherent cells were allowed to attach to the bottom of the wells for 12 hours. […]\n(§3) After 48 hours of treatment, plates with suspension cells were centrifuged at 800 g for 10 minutes and medium was removed. […] After 1-3 hours of incubation at 37° C., absorbance was measured at 490 nm in a 96-well plate reader. The background absorbance was measured in wells with only cell line medium and solution reagent. Data was calculated as a percentage of total absorbance of treated cell/absorbance of non treated cells. […]"}, "CEMO-1": {"test_system": "CEMO-1", "assay": "Cell proliferation assay, CEMO-1 (ALL)", "format": "cell-based, human", "settings": "Homo sapiens"}, "[1]": {"test_system": "human B-ALL mice model with CEMO-1 cell line", "assay": "In vivo therapeutic activity in the preclinical human B-ALL mice model with CEMO-1 cell line", "parameters": "species or system BALB/cA-Rag2−/−γc−/− mice", "description": "To examine the in vivo activity, a preclinical model of human B-ALL with RAG2 mouse was used. Six to eight-week old female BALB/cA-Rag2^−/−γc^−/− mice were purchased from The Netherlands Cancer Institute and maintained in pathogen-free isolation cages. RAG2 mice were injected intravenously (i.v.) with 10×10^6 CEMO-1 cells via tail vein to generate the human B-ALL mice model. Animals in groups of six were treated starting at day three after cells inoculation. The first group served as control and received placebo (saline) daily for 28 consecutive days, via i.v. injection.\nThe second group was treated with 3-04 (2.5 mg/kg) daily for 28 consecutive days via i.v. Animals were monitored weekly for weight loss and signs of tumour burden by flow cytometry of human cells. The median survival for 3-04 treated mice (N=6) was 91 days (SD: ±5.72) compared to 57 days (SD: ±10.52) for control mice (N=6) after cells inoculation."}, "OCI-Ly1": {"test_system": "OCI-Ly1", "assay": "Cell proliferation assay, OCI-Ly1 (GC-DLBCL)", "format": "cell-based", "settings": "Homo sapiens, 48 hours", "description": "as §1, §2, §3"}}}
{"smiles": "COc1cc2c(NC3CCN(C)CC3)cc(-c3ccc(C)o3)nc2cc1OCCCN1CCCC1.O=C(O)C(F)(F)F", "note": "[Compound 3-04, 6-methoxy-2-(5-methyl-2-furyl)-N-(1-methyl-4-piperidyl)-7-(3-pyrrolidin-1-ylpropoxy)quinolin-4-amine; 2,2,2-trifluoroacetic acid]", "values": [{"measurement": "GI50", "setting": "SU-DHL-7", "result": "100 to 1000", "unit": "nM"}, {"measurement": "GI50", "setting": "CEMO-1; 48 hours of treatment, Table 3", "result": "100 to 1000", "unit": "nM"}, {"measurement": "GI50", "setting": "CEMO-1; ALL, Table 5 comparison", "result": "100 to 1000", "unit": "nM"}, {"measurement": "median survival", "setting": "[1]; 2.5 mg/kg daily for 28 consecutive days i.v., after cells inoculation, control 57 days", "result": 91, "unit": "days"}, {"measurement": "survival compared with the control (Kaplan-Meier, log-rank test)", "setting": "[1]; 2.5 mg/kg daily for 28 days i.v., P=0.0009", "result": "significantly prolonged survival"}, {"measurement": "GI50", "setting": "OCI-Ly1", "result": "100 to 1000", "unit": "nM"}]}
